# In patent US20240034761A1, “REGENERATION OF MAMMALIAN TISSUES USING SYNTHETIC IMMODULINS” (priority 2022, published 2024):
# Marks after values point to notes of the source that are not given here. Peptide text beside a SMILES is read from it.
# Legend:
# [1] = tested on: THP1-Dual monocyte reporter cell line; assay: Adjuvant effect of helper molecules on immX3 peptide potency in THP1-Dual assay; assay type: cell-based, human; details: immX3 peptide 330 nM, no helper (buffer)
# Method: (§1) Mammalian cell differentiation assays employed the THP1-Dual monocyte reporter cell line (Invivogen Inc, San Diego, CA) seeded at 2×10e5 cells per well in 96-well plates and cultured at 37 degrees C. in RPMI-1640 growth medium plus 10% fetal bovine serum and 1% penicillin/streptomycin. Cells were subsequently treated for 24 hours with 100 ng/ml Phorbol 12-myristate 13-acetate (PMA protocol; Cayman Chemical Company, Ann Arbor, MI). Peptide (0.33 uM or 0.66 uM, as indicated) was then added, and incubation continued for an additional 24 hours. Culture supernatants were assayed for CCL22. Plates with adherent cells were washed with PBS and assayed for immunoreactivity of surface markers such as CD169, Clec9a or Clec12a using fuorescent tag- or biotin-labeled anti-human antibodies purchased from Miltenyi Biotec (Auburn, CA) and the secondary detection reagent recommended by the manufacturer.
# The THP1-Dual cell differentiation assay was carried out as described above in Example 2, using immX3 peptide (330 nM) in all samples plus the indicated helper or inhibitor molecule. Molecules were purched from Cayman Chemical Company (Ann Arbor, MI) or Sigma Chemical Company (St. Louis, MO). AU=arbitrary ELISA units. **p<0.01.
# [2] = tested on: THP1-Dual monocyte reporter cell line; assay: THP1-Dual myeloid cell differentiation assay (PMA protocol); assay type: cell-based, human; details: PMA 24 h, then peptide 0.33 uM or 0.66 uM 24 h
# Method: as §1
# [3] = tested on: Osteoblast cell line MC3T3E1; assay: MC3T3E1 osteoblast differentiation, alkaline phosphatase; assay type: cell-based; details: peptide 0.66 uM, 5 days, immX3AVD = 100
# Method: Yet another non-myeloid lineage was tested. Osteoblast cell line MC3T3E1 was purchased from ATCC (Manassas, VA) and grown in 96-well plates in alpha-MEM medium supplemented with 50 ug/ml ascorbic acid and 5 mM beta-glycerophosphate. Peptides were added and incubation proceeded for 5 days. Cells were washed with PBS buffer and extracts prepared using 100 uL 1X RIPA buffer (Cayman Chemical Company; Ann Arbor, MI) per well. Alkaline phosphatase was measured using 0.37 mg/ml 4-nitrophenyl phosphate in DEA buffer (both reagents purchased from Cayman Chemical Company) by measuring the slope of absorbance at 405 nm using a spectrophotometer. 10 uL of RIPA extract was used for each assay. Separately, protein concentration of extract was measured using a commercial kit. Values were corrected for protein concentration. Results are shown below (**p<0.05 vs immX3AVD=100): […]
# [4] = Plate binding of FITC-labelled hyaluronic acid to immobilised biotinylated peptides; details: 400 ng peptide/well, 1 ug FITC-HMW-HA, PBS; normalized to immX3 peptide binding = 100
# Method: Effects of pH, PIP2 and size classes: Streptavidin-coated 96-well plates (G-Biosciences, St. Louis, MO) were pre-loaded with biotinylated peptides [see Example 1] at 400 ng/well, at room temperature for 60 minutes. The plate was washed with PBS buffer and then 1 ug FITC-labelled heparin or hyaluronic acid (FITC-HMW-HA) in 100 uL PBS buffer was added per well (all tests done in quadruplicate). Incubation proceeded for 90 minutes at room temperature, followed by two PBS washes. The plate was read in a standard laboratory fluorometer (488/525 nm exitation/[…]) and the counts normalized for immX3 peptide binding=100. Values statistically above background are shown in bold font. **p<0.05 versus immX3AVD.
smiles,measurement,setting,value
CC(C)[C@H](NC(=O)[C@H](C)NC(=O)[C@H](Cc1c[nH]c2ccccc12)NC(=O)[C@H](CS)NC(=O)[C@H](Cc1ccccc1)NC(=O)CNC(=O)[C@H](CCCNC(=N)N)NC(=O)[C@H](CCCCN)NC(=O)[C@H](CCCNC(=N)N)NC(=O)CNC(=O)[C@H](CCCCN)NC(=O)[C@H](CO)NC(=O)[C@@H]1CCCN1C(=O)[C@H](CCCNC(=N)N)NC(=O)[C@H](CS)NC(=O)[C@H](CCC(N)=O)NC(=O)[C@H](CCCCN)NC(=O)[C@H](CCCCN)NC(=O)[C@H](CCCCN)NC(=O)[C@H](Cc1ccc(O)cc1)NC(=O)[C@H](Cc1ccccc1)NC(=O)CNC(=O)[C@H](CCCCN)NC(=O)[C@@H](N)CCCCN)C(=O)N[C@@H](CC(=O)O)C(=O)O [immX3AVD] (H-KKGFYKKKQCRPSKGRKRGFCWAVD-OH),CD169 (AU),[1],100.0 ± 4.9 AU
same,CD169+ (AU),[2]; relative to immX3AVD = 100,100 AU
same,Clec12A(AU),[2]; relative to immX3AVD = 100,100 AU
same,CCL22,[2]; culture supernatant,282.4 ± 18.4 pg/mL
same,Alk. Phos. Activity,[3]; compound added: None,100.0 ± 0.5
same,Alk. Phos. Activity,[3]; plus 2 uM Ciprofibrate,127.2 ± 2.7**
same,Alk. Phos. Activity,[3]; plus 2 uM GW 3965,59.1 ± 4.3**
same,Alk. Phos. Activity,[3]; plus 2 uM GW 501516,168.7 ± 3.0**
same,Alk. Phos. Activity,[3]; plus 1 mM D-raffinose,134.6 ± 4.6**
same,Alk. Phos. Activity,[3]; plus 1 mM L-ornithine,159.7 ± 4.4**
same,Hyaluronate binding (fluorescence counts),[4],100.0 ± 22.8
